Drawing on US10570075B2, “Compounds” (DSM IP ASSETS B.V., priority 2015, dated 2020), this text covers EC50 for one compound.

This test concerns the target T1, human vitamin D receptor (VDR) (Homo sapiens, UniProt P11473).
T1 construct: expressed in transfected cells; host or cells: HEK293 cells (ATCC), transient polyethylene-imine-based transfection
T1 sequence (P11473 127-423 limits assumed): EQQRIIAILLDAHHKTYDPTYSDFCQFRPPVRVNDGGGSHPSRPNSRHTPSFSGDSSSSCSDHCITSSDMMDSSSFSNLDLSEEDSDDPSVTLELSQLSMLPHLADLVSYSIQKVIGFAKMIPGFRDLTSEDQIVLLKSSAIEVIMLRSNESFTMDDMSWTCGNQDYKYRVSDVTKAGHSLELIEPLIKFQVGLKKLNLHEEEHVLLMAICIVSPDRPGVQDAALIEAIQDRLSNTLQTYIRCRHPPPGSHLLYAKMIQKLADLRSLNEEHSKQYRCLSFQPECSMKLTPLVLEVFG
The test is described as follows: Human vitamin D receptor (VDR) agonist activity, GAL4-VDR LBD luciferase transactivation assay in HEK293 cells. The format is cell-based. Particulars: transiently transfected HEK293 cells, VDR LBD-GAL4 DBD hybrid receptor, pFR-Luc luciferase reporter, 16 h incubation; read-out: Effective concentrations of half maximal activation (EC50). The source says: By way of example, the human vitamin D receptor (VDR) agonist activity of the claimed compounds can be tested using a cell based transactivation assay in an eukaryotic cell line. After a co-transfection, using a reporter plasmid construct and a hybrid receptor construct containing the ligand-binding domain of the human VDR linked to the DNA-binding domain of the yeast transcription factor GAL4, the cultured cells were stimulated by the VDR agonists. The hybrid VDR-GAL4 receptor binds the VDR agonists and transactivates luciferase reporter expression through the GAL4-response elements in the promoter of the luciferase gene (reporter construct). The VDR agonist binding and transactivation is determined by measuring the luciferase luminescence activity. The effective concentration of half maximal activation (EC50) was determined for the VDR agonists by means of dose-response experiments. The details of the protocol method of this test according to the invention are described in the example section. […]
(Reporter assays use an easily measured gene product as a stand-in for the process of interest.)

Take `CC/C(=C\C=C\C(O)(C(F)(F)F)C(F)(F)F)c1cccc(CCc2ccc(CO)c(C(C)O)c2)c1` (racemic) [I-a, (3E,5E)-1,1,1-trifluoro-6-(3-(3-(1-hydroxyethyl)-4-(hydroxymethyl)phenethyl)phenyl)-2-(trifluoromethyl)octa-3,5-dien-2-ol]: the EC50 is 8 nM.
